Results: patent publication US20090209512A1, “NEUROGENESIS INDUCER OR NEUROPATHY THERAPEUTIC AGENT COMPRISING ALKYL ETHER DERIVATIVE OR SALT THEREOF” (Toyama Chemical Co., Ltd., priority 2006, published 2009)

Key:
[1] = test system: cultured neural stem cells; test: Effect on differentiation of cultured neural stem cell (Tuj1-positive cell ratio); format: cell-based, ICR mouse
Method: Cultured neural stem cells were prepared according to the partially modified method of Hirabayashi (Development, 2004, 131(12), p. 2791-2801). The cerebrum was removed from an ICR mouse embryo (embryonic day 14) and incubated in artificial cerebrospinal fluid (124 mM NaCl, 5 mM KCl, 1.3 mM MgCl2, 2 mM CaCl2, 26 mM NaHCO3, 10 mM D-Glucose, pH 7.4) containing 0.0625% trypsin and 0.1 mg/mL of DNaseI at 37° C. for 5 min. A trypsin inhibitor (final concentration: 0.35 mg/mL) was then added and the mixture was centrifuged at 800 rpm for 5 min. The obtained pellet was dispersed by pipetting in a neural stem cell culture medium (DMEM/F-12 culture medium containing 20 ng/mL basic fibroblast growth factor, 20 ng/mL epidermal growth factor and B27 supplement (Invitrogen)) to obtain single cell suspension. […]
After 3 days of culturing, the cells were washed with phosphate-buffered saline (PBS), fixed with 4% paraformaldehyde/phosphate buffer, treated with 0.3% Triton X-100/PBS solution at room temperature for 5 minutes, washed with PBS, and incubated with 0.5% skim milk at room temperature for 1 hour. […] The cells were washed with PBS and observed under fluorescence microscope, and the number of the Tuj1-positive cells emitting red fluorescence was counted, and its ratio against the total cell number was calculated as the differentiation ratio into neurons representing a neurogenesis inducing effect.

[2] = test system: Male DBA/2J mice; test: Novelty-suppressed feeding (NSF) test; format: in vivo; conditions: 10 mg/kg orally for 28 days
Method: The novelty-suppressed feeding (NSF) test (Santarelli et al., 2003, Science. 301: 805-9) was performed to assess antidepressant efficacy of T-817MA. Male DBA/2J mice (7 weeks old, 20-21 animals/group) were used. We administrated mice orally with T-817MA (10 mg/kg), or vehicle (distilled water) for 28 days before NSF test. At the time of testing, mice that had been food deprived for 24 hours were gently placed in a corner of a brightly lit arena (approximately 650 lux at floor of arena, 50×50×20 cm) for a maximum of 5 minutes. The floor was covered with approximately 2 cm of bedding. Pellet of food was attached by wire at the center of the arena. […] Statistical differences between vehicle group and T-817MA treated group were found by Dunnett test.

[3] = test system: cultured neural stem cells; conditions: Proc. Natl. Acad. Sci. U.S.A., 2004, 101(47), pp. 16659-64; cited from earlier work

## OC1CN(CCCOCCc2ccc3sccc3c2)C1 [T-817MA, 1-(3-(2-(1-benzothiophen-5-yl)ethoxy)propyl)azetidin-3-ol]
[1]; T-817MA 10 μM vs B27 supplemented DMEM/F-12 alone
  Differentiation ratio compared with control group (neurogenesis inducing effect): higher differentiation ratio
[1]; T-817MA 10 μM, 3 days of culturing, B27-supplemented DMEM/F-12, control group 13.0
  Differentiation ratio into neurons (%) (Ratio of Tuj1 positive cells): 27.4%
[2]; mice food deprived 24 hours, vehicle 227.2
  NSF latency (mean): 145.5 s
[2]; P<0.01, Dunnett test
  Latency to feed vs vehicle group: significant decreased latency to feed

## CCCC(CCC)C(=O)O [valproic acid]
[3]
  Neurogenesis inducing effect in cultured neural stem cells: show the neurogenesis inducing effect
